In brackets after ≈: the same amount, converted by molar mass. Where two headings read alike, the source gives them in different places.
Tests used:
[1] = Determination of compound solubility in PBS buffer (LC-MS/MS); type: physicochemical; conditions: for solubility at 2 h: PBS buffer, aqueous buffer, kinetic from dmso stock, stirred 2 hours, read-out: Solubility
Method: The test compounds were 7, 67 and 85, respectively; the control compound was silymarin, purchased from Shanghai Dibai Biotechnology Co., Ltd., with the batch number HH06. Both the test compounds and the control compound were prepared into 10 mM stock solutions using DMSO. Phosphate buffered saline (PBS), with pH of 4.0 and 7.4, was used to test the solubility of the test compounds.
Treatment of test compound and control compound: 30 μL of test compound or control compound stock solution (10 mM) per well was added in a specially made solubility sample plate, and then 970 μL of PBS with different pH was added to each well (pH was 4.0 and 7.4, respectively). Repeated wells were set in the test. A stir bar was added to each well that was covered with a polytetrafluoroethylene or silica gel plug. Stirring was performed at 25° C. at 1100 rpm for 2 hours. 10 μL of sample was taken from each well, and then 990 μL of water and acetonitrile mixture (including internal standard substance) was added to mix well, followed by filtering with a filter plate.
Standard treatment: 10 mM stock solution was diluted with DMSO to 300 μM, then 10 μL of compound diluent was taken, and 990 μL of water and acetonitrile mixture (including internal standard substance) was added to mix well and formulated into a standard solution with the final concentration 3 μM.
The solubility sample plate was placed in the autosampler and the LC-MS/MS method was used for analysis. The concentration of the test compound was calculated by the response value of the test compound and standard, and the concentration of the standard.

NASH mice = test: Efficacy on non-alcoholic steatohepatitis (NASH) mice fed high-fat feed; type: in vivo, C57BL/6 mice; conditions: for Liver coefficient (liver weight/body weight) / Liver weight: 28 days; for Liver weight: X ± SD
Method: The test compounds were 4 and 7, respectively; the positive control silymarin was purchased from Shanghai Dibai Biotechnology Co., Ltd., with the batch number HH06.
Low-dose group (35 mg/kg) solution preparation: the quantitative test compound was precisely weighed and a certain amount of normal saline was added to prepare the oral suspension solution with the concentration of 3.5 mg/mL. The administration volume was 10 mL/kg.
High-dose group (70 mg/kg) solution preparation: the quantitative test compound was precisely weighed and a certain amount of normal saline was added to prepare the oral suspension solution with the concentration of 7.0 mg/mL. The administration volume was 10 mL/kg.
High-fat feed: basic feed ingredients were corn, flour, imported fish meal, soybean meal, secondary meal, yeast meal, soybean oil, etc. The high-fat feed was prepared from 73.6% basic feed with 10% lard, 10% egg yolk powder, 5% sucrose, 1.2% cholesterol and 0.2% pig bile salt.
Source, species, strain: C57BL/6 mice, provided by Beijing Vital River Laboratory Animal Technology Co., Ltd. Nanjing Branch (experimental animal production license: SCXK (Su) 2016-0003); experimental animal use license: SYXK (Jun) 2012-0049; age: 6-8 weeks at the beginning of dosing; weight: 18-22 g; gender: half male and half female.
After 3 days of adaptive feeding with normal feed, the mice were randomly assigned according to body weight: 8 mice were fed with normal feed and set as normal control (NC); the rest of mice were fed with high-fat feed until the end of the experiment. The mice were weighed and recorded every 3 days. After feeding with high-fat diet for 56 days (8 weeks), blood samples were collected from the orbital vein of mice to detect the blood biochemical indexes to identify whether the modelling was successful.
After successful modeling, the mice in the high-fat feed group were randomly divided into 6 groups with 8 animals in each group, including model group, compound 4 low dose group, compound 4 high dose group, compound 7 low dose group, compound 7 high dose group and silymarin high-dose group. The mice in each group were administered intragastrically according to the animal's body weight every day for 28 consecutive days (4 weeks). At the same time, during the administration period, the mice in each administration group and model group continued to be fed with high-fat feed until the end of the experiment. The normal control group was administered the corresponding volume of normal saline.
On the last day of the experiment, the mice in each group were fasted for 8 hours, blood was taken from the orbit and the serum was separated and then stored at −20° C. After blood collection, the mice were sacrificed and the liver was quickly separated, weighed and stored in a refrigerator at −80° C. Serum samples and liver tissue samples were subjected to determinations of serum triglyceride (TG), serum total cholesterol (TC), serum high-density lipoprotein (HDL-C), serum low-density lipoprotein (LDL-C), serum alanine aminotransferase (ALT), serum aspartate aminotransferase (AST), serum tumor necrosis factor alpha (TNFα), liver triglycerides (TG), liver total cholesterol (TC), liver malondialdehyde (MDA), liver superoxide dismutase (SOD); in addition, some livers of mice in the blank control group, model group, compound 7 low-dose group and silymarin high-dose group were fixed in neutral formaldehyde fixed solution and then HE staining was performed to analyzed the pathological changes of liver tissue.

In the case of `COc1cc(C2Oc3cc(C4Oc5cc(O)cc(O)c5CC4O)cc(O)c3OC2CO)ccc1O` (stereo not shown) [Compound 7, 2-{8-hydroxy-3-(4-hydroxy-3-methoxyphenyl)-2-hydroxymethyl-2,3-dihydrobenzo[b][1,4]dioxan-6-yl}chroman-3,5,7-triol], the solubility at 2 h ([1]; PBS pH = 4.0, 25° C.) is reported as 209 µM (≈ 101 µg/mL), the solubility at 2 h ([1]; PBS pH = 7.4, 25° C.) is reported as 214 µM (≈ 104 µg/mL) and the “Solubility in PBS buffer solution compared with silymarin (in words)” value ([1]; pH 4.0 and 7.4) is reported as “significantly higher than that of silymarin”. The TG (NASH mice; 35 mg/kg/day) was 1.22 ± 0.06 mmol/L, the “Liver coefficient (liver weight/body weight)” value (NASH mice; 35 mg/kg/day intragastric) was 4.53 ± 0.38 % and the Liver weight (NASH mice; 35 mg/kg/day intragastric) was 1.40 ± 0.05 g. For the same compound, the TG (NASH mice; 70 mg/kg/day) was 1.25 ± 0.06 mmol/L, the “Liver coefficient (liver weight/body weight)” value (NASH mice; 70 mg/kg/day intragastric) was 4.51 ± 0.28 % and the Liver weight (NASH mice; 70 mg/kg/day intragastric) was 1.41 ± 0.02 g. The “Therapeutic effect on non-alcoholic steatohepatitis in mice (in words)” value (NASH mice; 35 and 70 mg/kg) was “significant therapeutic effects”, the MDA (NASH mice; liver, 35 mg/kg/day) was 2.84 ± 0.24 nmol/mg and the SOD (NASH mice; liver, 35 mg/kg/day) was 18.54 ± 4.41 U/mg. The TC (NASH mice; liver, 35 mg/kg/day) was 1.53 ± 0.06 mmol/L, the MDA (NASH mice; liver, 70 mg/kg/day) was 2.79 ± 0.21 nmol/mg and the SOD (NASH mice; liver, 70 mg/kg/day) was 19.44 ± 3.11 U/mg. For the same compound, the TC (NASH mice; liver, 70 mg/kg/day) was 1.54 ± 0.09 mmol/L, the “Liver histopathology (HE staining)” value (NASH mice; low-dose group (35 mg/kg)) was “no lipid droplet vacuoles caused by steatosis” and the ALT (NASH mice; serum, 35 mg/kg/day) was 63.03 ± 30.59 U/L. It also gave an AST (NASH mice; serum, 35 mg/kg/day) of 115.16 ± 13.42 U/L, an HDL-C (NASH mice; serum, 35 mg/kg/day) of 0.83 ± 0.35 mmol/L and an LDL-C (NASH mice; serum, 35 mg/kg/day) of 1.95 ± 0.50 mmol/L. For the same compound, the TC (NASH mice; serum, 35 mg/kg/day) was 2.59 ± 0.38 mmol/L, the TG (NASH mice; serum, 35 mg/kg/day) was 1.13 ± 0.06 mmol/L and the TNF-α (NASH mice; serum, 35 mg/kg/day) was 414.26 ± 11.57 ng/L. It also gave an ALT (NASH mice; serum, 70 mg/kg/day) of 75.75 ± 27.48 U/L, an AST (NASH mice; serum, 70 mg/kg/day) of 123.61 ± 5.41 U/L and an HDL-C (NASH mice; serum, 70 mg/kg/day) of 0.89 ± 0.46 mmol/L. For the same compound, the LDL-C (NASH mice; serum, 70 mg/kg/day) was 1.85 ± 0.37 mmol/L, the TC (NASH mice; serum, 70 mg/kg/day) was 2.63 ± 0.81 mmol/L and the TG (NASH mice; serum, 70 mg/kg/day) was 1.11 ± 0.07 mmol/L. For the same compound, the TNF-α (NASH mice; serum, 70 mg/kg/day) was 425.80 ± 9.77 ng/L.
